# Results reported in patent US20250296937A1, “CYCLIC BISBENZYL TETRAHYDROISOQUINOLINE COMPOUND, AND PREPARATION METHOD THEREFOR AND USE THEREOF” (Shanghai Institute of Materia Medica, Chinesse Academy of …, priority 2021, published 2025).
# Entries after “also recorded” stand apart in the source; their conditions may differ. Like-named read-outs stand apart in the source and are kept apart here.
# Experiments:
# [1] = system: 2019 novel coronavirus (SARS-CoV-2) original strain; experiment: Replication inhibitory activity against SARS-CoV-2 original strain in Vero E6 cells (qRT-PCR); format: cell-based; details: read-out: Inhibition against viral replication of the original strain EC50
# [2] = target: T1, hERG potassium channel (Homo sapiens, UniProt Q12809); experiment: hERG potassium channel whole-cell membrane clamp in CHO cells; format: cell-based; details: for IC50: CHO cells stably expressing hERG, whole-cell membrane clamp
# T1 construct: expressed in transfected cells
# T1 sequence (Q12809 whole entry): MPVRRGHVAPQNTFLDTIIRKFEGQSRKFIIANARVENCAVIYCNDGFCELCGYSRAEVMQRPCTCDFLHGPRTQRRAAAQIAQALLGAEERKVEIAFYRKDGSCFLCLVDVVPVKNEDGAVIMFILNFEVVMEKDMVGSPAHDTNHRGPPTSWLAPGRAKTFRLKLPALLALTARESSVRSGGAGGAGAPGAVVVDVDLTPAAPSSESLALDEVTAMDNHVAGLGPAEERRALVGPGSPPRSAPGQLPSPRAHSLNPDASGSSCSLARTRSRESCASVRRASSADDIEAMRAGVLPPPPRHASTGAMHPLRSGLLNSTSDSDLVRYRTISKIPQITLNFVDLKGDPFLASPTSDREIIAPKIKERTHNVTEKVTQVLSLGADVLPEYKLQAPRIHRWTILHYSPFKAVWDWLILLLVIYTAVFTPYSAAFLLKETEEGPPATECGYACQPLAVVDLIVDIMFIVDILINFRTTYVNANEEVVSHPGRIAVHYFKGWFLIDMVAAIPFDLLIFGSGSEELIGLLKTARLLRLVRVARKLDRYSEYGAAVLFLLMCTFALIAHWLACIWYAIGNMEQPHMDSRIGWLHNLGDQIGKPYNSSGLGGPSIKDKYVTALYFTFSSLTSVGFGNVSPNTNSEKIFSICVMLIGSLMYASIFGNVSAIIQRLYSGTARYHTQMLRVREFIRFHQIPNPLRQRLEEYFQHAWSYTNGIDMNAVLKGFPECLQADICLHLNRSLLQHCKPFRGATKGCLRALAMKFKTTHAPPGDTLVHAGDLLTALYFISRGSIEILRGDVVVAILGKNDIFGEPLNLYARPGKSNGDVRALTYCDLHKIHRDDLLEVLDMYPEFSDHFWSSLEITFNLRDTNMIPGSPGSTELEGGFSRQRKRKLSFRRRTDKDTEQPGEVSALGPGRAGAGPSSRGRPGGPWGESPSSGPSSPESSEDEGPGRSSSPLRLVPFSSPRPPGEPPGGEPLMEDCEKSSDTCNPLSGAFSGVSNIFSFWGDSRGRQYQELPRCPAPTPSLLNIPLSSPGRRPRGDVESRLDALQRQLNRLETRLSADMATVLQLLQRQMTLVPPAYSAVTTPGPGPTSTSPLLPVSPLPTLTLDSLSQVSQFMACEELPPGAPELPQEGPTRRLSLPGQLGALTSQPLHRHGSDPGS
# Experimental: Compounds were given for at least 1 min for each tested concentration, and at least 2 cells (n≥2) were tested per concentration.
# [3] = Cytotoxicity test on Vero E6 cells (CCK8); format: cell-based; details: African green monkey; Vero E6 cells, CCK8 kit
# Experimental: (§1) In this embodiment, the half toxicity concentration of each embodiment on Vero E6 cells was determined by CCK8 kit analysis (CC50).
# [4] = system: Vero E6 cells; experiment: Cytotoxicity test on Vero E6 cells (CCK8); format: cell-based; details: Vero E6 cells
# Experimental: as §1
# [5] = system: Raw 264.7 cells; experiment: Cell viability in LPS-induced inflammation model of Raw 264.7 cells (CCK-8); format: cell-based; details: 1 μg/ml LPS, 1 μM compound, 16 hours
# Experimental: (§2) In this example, the effect of the compounds of the present invention on the inflammation level of the LPS-induced inflammation model of Raw 264.7 cells was analyzed by cell viability in combination with inflammatory factors; cell viability was analyzed by CCK-8 assay; and mRNA expression levels of inflammation-related indicators were detected by a real-time quantitative PCR (Q-PCR) method. Raw 264.7 cells were purchased from ATCC; CCK-8 kit was purchased from Meilunbio, item no. MA0218-3; LPS was purchased from Sigma, item no. L2630.
# Experimental methods: first, 8000 cells/well Raw 264.7 cells were placed in 96-well plates and incubated overnight. On the second day, 0.1% DMSO was added to the control cells, 1 μg/ml LPS as well as 0.1% DMSO was added to the model group, 1 μg/ml LPS as well as 1 μM of the compounds (oxyacanthine hydrochloride (oxy), 1, 2, tetrandrine (tet), 3, 4, 6, 58) was added to the treatment group, and the 96-well plates were sterilized and incubated in a constant temperature incubator for 16 hours. Finally, the viability of the cells was detected using the CCK-8 kit.
# [6] = system: IL-6, IL-1β, CXCL9 mRNA in Raw 264.7 cells; experiment: mRNA levels of inflammatory indicators in LPS-induced inflammation model of Raw264.7 cells (Q-PCR); format: cell-based; details: 1 μg/ml LPS, 1 μM compound, 16 hours
# Experimental: as §2
# Experimental methods: first, 5*10^4 cells/well Raw 264.7 cells were placed in 12-well plates and incubated overnight. On the second day, 0.1% DMSO was added to the control cells, 1 μg/ml LPS as well as 0.1% DMSO was added to the model group, 1 μg/ml LPS as well as 1 μM of the compounds (oxyacanthine hydrochloride (oxy), 1, 2, tetrandrine (tet), 3, 4, 6, 58) was added to the treatment group, and the 12-well plates were sterilized and incubated in a constant temperature incubator for 16 hours. Cellular mRNA was extracted by lysis using Trizol (Yisheng, 10606ES60) and detected by real-time quantitative PCR after reverse transcription.
# [7] = system: carbon tetrachloride-induced acute liver fibrosis; experiment: Carbon tetrachloride-induced acute liver fibrosis in mice; format: in vivo, C57BL/6 mice; details: for liver fibrosis indicators (Collagen1, α-SMA) by WB assay: 30 mg/kg orally once a day for 6 days, CCl4 0.6 ml/kg i.p. D1, D3, D5; for effect on CCl4-induced acute liver fibrosis in mice: oral administration, 30 mg/kg
# Experimental: In this example, the effect of the compounds of the present invention on the carbon tetrachloride-induced acute liver fibrosis model was analyzed by tissue observation, fibrosis indicators, HE and Sirius red staining; the injury of mice was determined by body weight testing and tissue bright-field photographing; the protein expression levels of fibrosis-related indicators were detected by WesternBlot assay; and the fibrosis progression was analyzed by HE and Sirius red staining. C57BL/6 mice were purchased from SLAC; CCl4 was purchased from Sinopharm Chemical Reagent Co, Ltd, item no. 10006464; olive oil was purchased from Sinopharm, item no. 69018028; primary antibody: Collagen was purchased from ARG21965, item no. arigobio; α-smooth muscle actin was purchased from CST, item no. mAb #19245; VIMENTN was purchased from CST, item no. mAb #5741; GAPDH was purchased from Yeasen, item no. mAb #30201ES20.
# Solution preparation: CCl4 was diluted with olive oil (1:9, vol:vol) and the compounds were configured with 85% saline+5% DMSO+5% HS-15+5% PEG400 as solvents toa concentration of 3 mg/ml.
# Construction of fibrosis model mice: […] C57 mice were randomly divided into […] after 1 week of adaptive feeding: blank group, model group, and 2 treatment groups; with 6 experimental animals in the blank group and 8 experimental animals in each of the remaining 3 groups. Except for the blank group, the remaining three groups were injected intraperitoneally with CCl4 (0.6 ml/kg) in D1, D3, and D5, respectively, and the blank group was injected intraperitoneally with olive oil at the same time. At the same time of modeling, mice in the treatment group were continuously administered by gavage for 6 days, once a day, 2 h after the injection of CC14, and the treatment group was administered orally 30 mg/kg of Compound 2 or Compound 4; mice in the blank group and the model group were given an equal amount of saline by intraperitoneal injection, and the mice were euthanized 24 h after the last administration of CCl4 for test. A portion of the liver tissue was cut to appropriate size and placed in 4% PFA, −80° C. refrigerator for subsequent detection of pathological changes in tissue sample slices, and WB assay, respectively.
# Detection methods: 1. After autopsy, liver in situ photos were taken; 2. Liver tissue was retained and lysed using RIPA to extract proteins for WB detection; 3. HE staining as well as Sirius red detection were performed when liver tissue sections were fixed.
# [8] = system: Th1/Th17 differentiation of CD4+T cells; experiment: CD4+T cell in vitro differentiation assay (Th1 IFN-γ / Th17 IL-17A, flow cytometry); parameters: inhibitory effect on Th1/Th17 differentiation at lower concentration: dose or concentration left out as unconfirmed; details: 72 h; for inhibitory effect on Th1/Th17 differentiation: 10 μM, IFN-γ/IL-17A by flow cytometry
# Experimental: CD4^+T cell isolation: CD4^+T cells were isolated from the spleens of 7-8 week old C57BL/6 mice using the Mouse CD4^+T Cell Sorting Kit (Dynabeads® Untouched™ Mouse CD4 Cells Isolation Kit, Invitrogen, Catalog nos: 11415D).
# In vitro differentiation of CD4^+T cells: the isolated CD4^+T cells were inoculated into 96-well plates while different concentrations of compounds were added, and then corresponding cytokines and antibodies were added: anti-CD28 (2 μg/ml), anti-CD3 (2 μg/ml), Anti-IL-4 (10 μg/ml), IL-12 (10 ng/ml), Anti-IFN-γ (10 μg/ml), anti-IL-4 (10 μg/ml), IL-6 (30 ng/ml), TGF-β1 (3 ng/ml), IL-10 (10 ng/ml), IL-23 (10 ng/ml), and TNF-α (10 ng/ml). Cells were cultured in 5% CO2 at 37° C. in a cell culture chamber for 72 h. Cells were collected, stained intracellularly, analyzed by flow cytometry, and tested for IFN-γ/IL-17A content to assess the effect of compounds on CD4^+T differentiation into Th1/Th17 in vitro.
SMILES,"EC50 ([1]; Severe acute respiratory syndrome coronavirus 2, Vero C1008, Vero E6 cells, MOI 0.01, 24 h p.i., viral copy number by qRT-PCR)",activity against hERG ion channels [2],"IC50 ([2]; human, CHO cells stably expressing hERG potassium channels, pH 7.4)",IC50 [3],cytotoxicity on Vero E6 cells compared with oxyacanthine hydrochloride [4],cell viability in LPS-induced inflammation model [5],"inhibition of inflammatory factors (IL-6, IL-1β, CXCL9 mRNA) in LPS-induced inflammation model [6]","liver fibrosis indicators (Collagen1, α-SMA) by WB assay [7]",effect on CCl4-induced acute liver fibrosis in mice [7],inhibitory effect on Th1/Th17 differentiation [8],"EC50 ([1]; Severe acute respiratory syndrome coronavirus 2, Vero C1008, 24 h)",IC50 [2],inhibitory effect on Th1/Th17 differentiation at lower concentration [8]
COc1cc2c3cc1Oc1c(OC)c(OC)cc4c1[C@H](Cc1ccc(cc1)Oc1cc(ccc1C(N)=O)C[C@H]3N(C)CC2)N(C)CC4 [Compound 4],0.1 to 1 µM,weakly active,20 µM,> 50 µM,weaker cytotoxicity than oxyacanthine hydrochloride,did not affect cell viability,significantly inhibited inflammatory factors; also recorded: significant inhibition,down-regulated,alleviated; also recorded: mitigative effect,strong inhibitory effect,–,–,–
CCCCNC(=O)Oc1ccc2cc1Oc1ccc(cc1)C[C@H]1c3c(cc(OC)c(OC)c3Oc3cc4c(cc3OC)CCN(C)[C@@H]4C2)CCN1C [Compound 2],–,weakly active,–,30 to 50 µM,weaker cytotoxicity than oxyacanthine hydrochloride,did not affect cell viability,significantly inhibited inflammatory factors; also recorded: significant inhibition,down-regulated,alleviated; also recorded: mitigative effect,strong inhibitory effect,0.1 to 1 µM,19 µM,strong inhibitory effect
